According to publication PMC9320114 (Molecules, 2022):
Where two headings read alike, the source gives them in different places.

How the values were obtained:
MurC = MurC (Escherichia coli, UniProt P17952); experiment: Inhibition of MurC, colorimetric malachite green method; assay type: biochemical, bacterial; details: for remaining activity at 50 µM / remaining activity at 100 µM: 0.25 h; for remaining activity at 50 µM: read-out: MurC (RA [%]); for remaining activity at 100 µM: residual activity at 100 µM, read-out: MurC RA (%)
MurC, sequence (P17952 whole entry): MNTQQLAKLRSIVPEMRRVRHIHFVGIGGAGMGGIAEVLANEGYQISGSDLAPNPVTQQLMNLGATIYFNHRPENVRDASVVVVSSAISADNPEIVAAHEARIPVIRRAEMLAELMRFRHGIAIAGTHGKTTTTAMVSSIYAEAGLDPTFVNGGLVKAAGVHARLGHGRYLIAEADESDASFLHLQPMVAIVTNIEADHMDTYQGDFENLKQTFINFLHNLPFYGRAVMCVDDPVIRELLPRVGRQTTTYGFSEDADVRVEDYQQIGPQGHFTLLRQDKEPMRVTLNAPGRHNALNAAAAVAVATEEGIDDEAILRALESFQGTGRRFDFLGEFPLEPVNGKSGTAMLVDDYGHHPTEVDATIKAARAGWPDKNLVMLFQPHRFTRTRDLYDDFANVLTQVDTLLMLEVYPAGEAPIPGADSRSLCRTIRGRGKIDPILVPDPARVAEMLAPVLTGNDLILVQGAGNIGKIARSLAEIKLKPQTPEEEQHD
Method: (§1) Inhibition of Mur enzymes was monitored with the colorimetric malachite green method, which measured orthophosphate formed during reaction. The mixtures with a final volume of 50 µL contained:
MurC: 50 mM HEPES-NaOH, pH 8.0, 5 mM MgCl2, 0.005% Triton X-114, 120 µM L-Ala, 120 µM UDP-N-acetyl-muramic acid, 450 µM ATP, purified MurC, and 50 or 100 µM of each compound tested.
(§2) All compounds were soluble in the assay mixtures containing 5% DMSO (v/v). After incubation for 15 min (20 min for DdlB) at 37 °C, the enzyme reaction was terminated by addition of Biomol® reagent (100 µL) and absorbance was measured after 5 min at 650 nm (Synergy™ H4 microplate reader; BioTek Instruments, Inc., BioTek Gen5 Data Analysis Software, version 2.9, Santa Clara, CA, USA). All experiments were performed in duplicate.

hMAO-B = target: T1, hMAO-B (Homo sapiens, UniProt P27338); experiment: biochemical; details: for IC50: IC50 ± SEM
T1 construct: purchased Sigma Aldrich; host or cells: BTI-TN-5B1-4 baculovirus-infected insect cells
T1 sequence (P27338 1-520): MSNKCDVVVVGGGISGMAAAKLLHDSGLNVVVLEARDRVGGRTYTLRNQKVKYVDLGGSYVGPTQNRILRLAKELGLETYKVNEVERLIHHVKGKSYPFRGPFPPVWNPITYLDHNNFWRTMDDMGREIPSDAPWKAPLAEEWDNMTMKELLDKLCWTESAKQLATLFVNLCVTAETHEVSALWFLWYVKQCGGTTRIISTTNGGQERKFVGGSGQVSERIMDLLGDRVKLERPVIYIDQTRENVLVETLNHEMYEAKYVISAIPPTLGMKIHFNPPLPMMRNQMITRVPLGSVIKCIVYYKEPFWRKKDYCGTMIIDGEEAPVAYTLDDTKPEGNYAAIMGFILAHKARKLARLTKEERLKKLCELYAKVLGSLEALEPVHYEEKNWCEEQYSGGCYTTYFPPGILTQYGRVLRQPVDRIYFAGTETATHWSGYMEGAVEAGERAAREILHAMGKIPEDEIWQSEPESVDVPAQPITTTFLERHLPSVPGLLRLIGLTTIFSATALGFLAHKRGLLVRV
Excerpt: (§3) The effects of the compounds on hMAO-A and hMAO-B were investigated using a fluorimetric assay, following a method previously described in the literature. Recombinant human microsomal hMAO enzymes expressed in BTI-TN-5B1-4 baculovirus-infected insect cells, horseradish peroxidase (HRP, type II, lyophilized powder), and p-tyramine hydrochloride were purchased from Sigma Aldrich. 10-Acetyl-3,7-dihydroxyphenoxazine (Amplex Red reagent) was synthesized as described in the literature.
After preincubation, the reaction was started by adding final concentrations of 200 µM Amplex Red reagent, 2 U/mL HRP, and 1 mM p-tyramine hydrochloride. Resorufin production was quantified based on the fluorescence produced (λex = 530 nm; λem = 590 nm) at 37 °C over a 20 min period. For the control experiments, DMSO was used instead of appropriate dilutions of the compounds in DMSO. For the determination of blank (b), the enzyme solution was replaced by a phosphate-buffered solution. Initial velocities were calculated from the obtained trend, with each measurement performed in duplicate. Specific fluorescence emission to determine the final results was calculated after subtracting the blank activity (b). Inhibitory potencies were expressed as RAs, and IC50 values were calculated as described in the section “Inhibition of hBChE and mAChE” above.

hMAO-A = target: T2, hMAO-A (Homo sapiens, UniProt P21397); experiment: Inhibition of hMAO-A, fluorimetric Amplex Red assay; assay type: biochemical; details: residual activity at 10 µM
T2 construct: purchased Sigma Aldrich; host or cells: BTI-TN-5B1-4 baculovirus-infected insect cells
T2 sequence (P21397 1-527): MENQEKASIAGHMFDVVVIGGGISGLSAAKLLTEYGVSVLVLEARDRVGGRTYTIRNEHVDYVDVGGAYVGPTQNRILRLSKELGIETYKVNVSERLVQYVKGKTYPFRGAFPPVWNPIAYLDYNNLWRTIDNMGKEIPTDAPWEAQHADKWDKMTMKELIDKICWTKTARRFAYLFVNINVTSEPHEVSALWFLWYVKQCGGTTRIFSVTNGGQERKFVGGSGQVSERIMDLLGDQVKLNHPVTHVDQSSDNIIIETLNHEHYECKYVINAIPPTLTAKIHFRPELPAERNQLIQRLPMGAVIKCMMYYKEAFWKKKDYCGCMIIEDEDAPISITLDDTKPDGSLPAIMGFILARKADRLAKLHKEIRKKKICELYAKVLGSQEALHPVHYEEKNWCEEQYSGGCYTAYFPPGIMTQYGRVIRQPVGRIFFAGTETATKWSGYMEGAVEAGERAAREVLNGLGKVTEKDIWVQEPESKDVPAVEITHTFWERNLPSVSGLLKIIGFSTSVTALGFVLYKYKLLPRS
Method: as §3
Briefly, 100 µL of 50 mM sodium phosphate buffer (pH 7.4, 0.05% (v/v) Triton X-114), containing the compounds and hMAO-A or hMAO-B, was incubated for 15 min at 37 °C in a flat-bottomed black 96-well microplate protected from ambient light. After preincubation, the reaction was started by adding final concentrations of 200 µM Amplex Red reagent, 2 U/mL HRP, and 1 mM p-tyramine hydrochloride. Resorufin production was quantified based on the fluorescence produced (λex = 530 nm; λem = 590 nm) at 37 °C over a 20 min period. For the control experiments, DMSO was used instead of appropriate dilutions of the compounds in DMSO. For the determination of blank (b), the enzyme solution was replaced by a phosphate-buffered solution. Initial velocities were calculated from the obtained trend, with each measurement performed in duplicate. Specific fluorescence emission to determine the final results was calculated after subtracting the blank activity (b). Inhibitory potencies were expressed as RAs, and IC50 values were calculated as described in the section “Inhibition of hBChE and mAChE” above.

DdlB = DdlB (Escherichia coli, UniProt P07862); experiment: Inhibition of DdlB, colorimetric malachite green method; assay type: biochemical, bacterial; details: 20 min, read-out: DdlB (RA [%])
Method: as §1
DdlB: 50 mM HEPES-NaOH, pH 8.0, 5 mM MgCl2, 6.5 mM (NH4)2SO4, 10 mM KCl, 0.005% Triton X-114, 700 µM D-Ala, 500 µM ATP, purified DdlB, and 50 µM of each compound tested.
as §2

MurA = MurA (Escherichia coli, UniProt P0A749); experiment: Inhibition of MurA, colorimetric malachite green method; assay type: biochemical, bacterial; details: for remaining activity at 50 µM: 0.25 h, read-out: MurA (RA [%]); for RA (MurA, 50 µM): residual activity at 50 µM, Figure 1; for MurA RA (%): residual activity at 100 µM, Table 1
MurA, sequence (P0A749 whole entry): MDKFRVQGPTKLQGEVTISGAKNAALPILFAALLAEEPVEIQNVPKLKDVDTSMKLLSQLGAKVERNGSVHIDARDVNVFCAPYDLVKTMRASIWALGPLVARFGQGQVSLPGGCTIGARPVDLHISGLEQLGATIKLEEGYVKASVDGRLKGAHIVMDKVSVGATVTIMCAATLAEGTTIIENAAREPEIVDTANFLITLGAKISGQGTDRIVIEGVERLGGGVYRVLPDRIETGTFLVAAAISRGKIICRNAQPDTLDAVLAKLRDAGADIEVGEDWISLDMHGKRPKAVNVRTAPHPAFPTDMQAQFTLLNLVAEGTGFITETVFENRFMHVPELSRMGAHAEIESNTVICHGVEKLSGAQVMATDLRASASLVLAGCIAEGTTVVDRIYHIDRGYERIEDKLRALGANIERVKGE
Method: as §1
MurA: 50 mM HEPES-NaOH, pH 7.8, 0.005% Triton X-114, 200 µM uridine-diphosphate-N-acetylglucosamine, 100 µM phosphoenolpyruvate, purified MurA, and 50 or 100 µM of each compound tested.
as §2

[1] = residual activity at 10 µM, Mini Library screen, Table S1, read-out: hMAO-B (RA [%])
[2] = residual activity at 10 µM, Table 3, read-out: hMAO-B RA (%)
[3] = Mini Library screen, Table S1, read-out: hMAO-A (RA [%])
[4] = Table 3, read-out: hMAO-A RA (%)

SMILES	remaining activity at 50 µM (MurC)	IC50 (hMAO-B; Table 3)	remaining activity at 10 µM (hMAO-B; [1])	remaining activity at 10 µM (hMAO-B; [2])	hMAO-B RA [%] (hMAO-B; residual activity at 10 µM, Table S3)	remaining activity at 10 µM (hMAO-A; [3])	remaining activity at 10 µM (hMAO-A; [4])	hMAO-A RA [%] (hMAO-A; Table S3)	remaining activity at 50 µM (DdlB)	remaining activity at 50 µM (MurA)	IC50 (MurC)	remaining activity at 100 µM (MurC; Table 2)	IC50 (MurC; Table 2, IC50 ± SEM, read-out: MurC IC50)	IC50 (MurA)	RA (MurA, 50 µM) (MurA)	MurA RA (%) (MurA)
O=C(OC[C@H]1CCCN1c1ccnc2ncnn12)c1ccc(Oc2ccccc2)nc1 [MS-ML31]	94%	0.912 ± 0.122 µM	13%	17%	17%	78%	98%	98%	98%	94%						
CCCCc1nc2ccn(Cc3ccccc3)c(=O)c2n1Cc1ccc(-c2ccccc2-c2nnn[nH]2)cc1 [MS-ML03]	61%		97%			83%			81%	100%	85 ± 15 µM	40%				
CCCCc1nc2ccn(CC(=O)N3CCCCC3)c(=O)c2n1Cc1ccc(-c2ccccc2S(=O)(=O)NC(=O)OCc2ccccc2)cc1F [MS-ML05]	55%		93%			79%			91%	90%		32%	101 ± 23 µM			
CCCCCCN(Cc1ccc(C#Cc2ccc(CCCC)cc2)cc1)c1ccc(O)c(C(=O)O)c1 [MS-ML24]	83%		64%			57%			116%	15%				7 ± 3 µM	15%	0%
CCCCCCN(Cc1ccc(C#Cc2ccc(CCCC)cc2)cc1)C(=O)c1ccc(O)c(C(=O)O)c1 [MS-ML25]	98%		77%			73%			114%	0%				6 ± 2 µM	0%	0%
C1=C(c2ccccc2)CCN(CCCCc2c[nH]c3ccccc23)C1 [MS-ML10]	74%		82%			75%			96%	110%						
Oc1ccc2[nH]cc(CCCCN3CC=C(c4ccccc4)CC3)c2c1 [MS-ML11]	89%		45%			31%			95%	100%						
CCCCCCN(Cc1ccc(C#Cc2ccc(CCCC)cc2)cc1)c1ccc(F)c(C(=O)O)c1 [MS-ML26]	73%		92%			60%			114%	7%				7 ± 4 µM	7%	0%
O=C(Nc1ccc(Oc2ccncc2)cc1)Nc1cc(C(F)(F)F)ccc1-n1cncn1 [MS-ML80]	96%	0.405 ± 0.076 µM	11%	10%		82%	78%		94%	93%						
